Measured values taken from patent US20230272077A1, “PD-1 SIGNAL INHIBITOR COMBINATION THERAPY” (KYOTO UNIVERSITY, priority 2015, published 2023).
Entries after “also recorded” stand apart in the source; their conditions may differ.

Tests used:
[1] = tested on: MethA; test: Mouse therapy model, MethA-transplanted BALB/c mice (tumor volume); assay type: in vivo; settings: MethA in BALB/c mice; combined with PD-L1 antibody
Procedure: MC38 (5×10^5) and MethA (5×10^5) cells were intradermally injected on the right flank. MC38 was inoculated into C57BL/6 mice and MethA was inoculated into BALB/c mice. For monotherapy, mice were intraperitoneally injected with 150 μg of PD-L1 mouse antibody (1-111A) (prepared by the laboratory of the present inventors) 5 days after the tumor inoculation. Therapy with PD-L1 antibody alone was repeated three times every 5 days. For combination therapy, administration of PD-L1 antibody and chemical agents started 7 days after tumor injection. Chemical agents were injected at a regular interval of 2 days and PD-L1 antibody at a regular interval of 5 days (shown in FIG. 3b). Tumors were measured on every alternate day, and tumor volumes were calculated using the formula for typical ellipsoid, π×(length×breadth×height/6).
The following chemical reagents were used at the indicated concentrations for combination therapy. AMPK activator: A769662, 6 mg/kg (Abcam); mTOR activator: MHY1485, 3 μg/kg (Sigma-Aldrich); uncoupler: carbonylcyanide-p-trifluoromethoxyphenylhydrazone (FCCP), 1.2 mg/kg (Abcam); uncoupler: 2,4-Dinitrophenol (DNP), 1.7 mg/kg (Aldrich); SIRT1 activator: resveratrol, 0.5 mg/kg (Abcam); ROS scavenger: Mn (III) tetrakis (4-benzoic acid) porphyrin (MnTBAP), 1.25 mg/kg (Calbiochem); ROS generator: tert-butyl hydroperoxide solution (Luperox TBH70X), 200 μL/kg (Sigma-Aldrich); ATP synthase inhibitor: oligomycin, 250 μg/kg (Sigma-Aldrich); paraquat 2 mg/kg (Nakalai Tesque); oltipraz 1.9 mg/kg (Sigma); bezafibrate 1 mg/kg (ChemCruz).
MethA cells (5×10^5) were inoculated into BALB/c mice. After 7 days, anti-PD-L1 antibody (1-111A, 80 μg) and Foxo1 inhibitor (5-amino-7-(cyclohexylamino)-1-ethyl-6-fluoro-4-oxo-1,4-dihydroquinoline-3-carboxylic acid, Calbiochem) (2 mg/kg) were administered intraperitoneally.
Fibrosarcoma MethA (Cell Resource Center for Biomedical Research) cells (5×10^5) were inoculated into BALB/c mice. After 7 days, anti-PD-L1 antibody (1-111A, 60 μg) and Aminoleban (Otsuka Pharmaceutical, 400 μl/mouse) were administered.

[2] = tested on: AMPK and its associated proteins ACC and SIRT1; test: Western blotting of DLN CD8+ T cells, AMPK pathway; assay type: in vivo, mouse; settings: CD8+ T cells from mice treated with PD-L1 antibody and reagent
Procedure: FIG. 7. […] Phosphorylation of AMPK, ACC, mTOR and S6K and the expression of SIRT1 and 4EBP1 were analyzed by Western blotting. b) MC38-bearing mice were treated with PD-L1 antibody in combination with AMPK activator (A769662) and/or mTOR activator (MHY1485) according to the same schedule as shown in FIG. 3b.
CD8^+ T cells were isolated using mouse CD8 Microbeads (Miltenyi Biotec). After washing with PBS twice, 2×10^6 cells were solubilized in a lysis buffer containing 30 mM Tris-HCl (pH.7.4), 150 mM NaCl, 10% glycerol, 0.1% SDS, 1% Triton-X-100, 0.05% Na-Doc, 5 mM EDTA (pH.8.0), protease inhibitor mixture (Roche Molecular Biochemicals) and phosphatase inhibitors (Nacalai Tesque). After measurement of protein concentrations by DC protein assay (Bio-Rad), 4 μg of proteins was mounted on 4 to 20% gradient Mini-PROTEAN TGX Gels (Bio-Rad) and electroblotted onto nitrocellulose membranes, which were then incubated in a blocking buffer of TBS containing 1% BSA. Primary antibody incubations were carried out overnight at 4° C. in blocking buffer. After washing, secondary antibody incubations were carried out at room temperature for 40 min in blocking buffer. Blots were developed with enhanced chemiluminescence (Amersham Pharmacia). […]

[3] = tested on: tumor cells; test: Phenotypic and transcription profile analysis of tumor cells from mice treated with reagent alone; parameters: species or system mouse; settings: tumor cells from mice treated with reagent alone in vivo
Text: FIG. 12. […] After enzymatic digestion, tumor cells were sorted with a cell isolation kit capable of excluding non-tumor cells. The isolated tumor cells were further purified with Aria and used in the following experiments. b) Tumor cells were stained with antibodies targeting PD-L1, MHC class I, CD155 (ligand of TIGIT), and VISTA or with dyes for mitochondrial mass, membrane potential, and superoxide. c) Expression levels of genes associated with mitochondrial energy metabolism and apoptosis were examined using RT^2 profiler PCR Kit.
For analyzing draining lymph nodes, cells from axillary, brachial, and inguinal lymph nodes on the right side of tumor-inoculated mice were harvested and mixed. Averaged cell numbers per one lymph node were used as absolute cell numbers. For tumor analysis, tumor tissues were minced into 2- to 3-mm pieces with scissors and digested with collagenase type IV (Thermo Fisher Scientific) using a gentle MACS Dissociator (Miltenyi Biotec). The numbers of tumor cells per mg were used as absolute numbers. Tumor cells were isolated from digested tumor tissues using a Tumor Cell Isolation Kit, mouse (Miltenyi Biotec). This kit purifies tumor cells by excluding lymphocytes, red blood cells, fibroblasts, endothelial cells and tumor-associated stromal cells. The resultant tumor cell population was further isolated/purified with FACS Aria (BD Biosciences). […]

N#CC(C#N)=NNc1ccc(OC(F)(F)F)cc1 [FCCP, carbonyl cyanide p-trifluoromethoxyphenylhydrazone]
enhancement of antitumor effect of PD-L1 antibody (tumor volume) [1]: enhanced the antitumor effect of PD-L1 antibody | activation of AMPK and its associated proteins ACC and SIRT1 [2]: activated | changes in immune-regulatory surface markers and transcriptional profiles of tumor cells [3]: did not show a significant difference; also recorded: little effect on tumor cells in vivo
